Results published in patent publication US6197575A, “Vascularized perfused microtissue/micro-organ arrays” (Massachusetts Institute of Technology, priority 1999, dated 2001).

Tests used:
[1] = test system: cells; conditions: tethered to silicon substrates; cited from earlier work
[2] = test system: P450 1A1; test: EROD assay (7-ethoxyresorufin O-dealkylation) in perfused bioreactor chip of hepatocytes and endothelial cells; type: cell-based, rat
Protocol: Bioreactor constructs using an assay that measures the activity of one representative P450 isozyme, cytochrome P450 1A1, was evaluated. This enzyme is present in all mammalian species and is highly inducible by polycyclic aromatic hydrocarbons as well as other agents. 7-Ethoxyresorufin is a selective substrate of rat P450 1A1 which catalyzes its de-ethylation to the highly fluorescent resorufin. Subsequent to P450 1A1 catalyzed de-ethylation, resorufin can be exported from the cell or undergo phase II conjugation. There are two possible phase II conjugation products resulting from the enzyme catalyzed addition of sulfate or glucoronic acid to the 7-hydroxyl group of resorufin. Thus, from this assay one can quantitatively determine the activity of P450 1A1 and the phase II conjugation enzymes. […]
The 7-ethoxyresorufin O-dealkylation (EROD) assay involved dissolving the substrate into the chemically defined media (final concentration of 10-20 μM) and perfusing it through the tissue array. The effluent was collected in sequential fractions which then were analyzed by fluorescence detection for the presence of resorufin. Total conversion within each fraction was determined by incubating an aliquot from the fraction with enzymes that hydrolyze the phase II conjugates of resorufin back to the free alcohol. […]

Tethered EGF: epidermal growth factor (EGF) tethered to silicon substrates
biological activity after tethering [1]: retained full biological activity | stimulation of cells [1]: stimulate cells in a dose-dependent manner

O=c1cc(-c2ccccc2)oc2c1ccc1ccccc12 [naphthoflavone]
enzyme activity (resorufin formation) in presence and after removal of inhibitor ([2]; 20 μM inhibitor with 10 μM ethoxyresorufin, t=240-385 min): inhibited by the inclusion of a reversible inhibitor to the media and then recovered when the inhibitor was removed

Cc1ccc2cc3c(ccc4ccccc43)c3c2c1CC3 [3-methylcholanthrene]
increase in absolute level of resorufin formation ([2]; bioreactor treated for final 24 hours in static culture, attomoles resorufin formed per minute per hepatocyte): approximately five
